# Experimental data as given in patent US20140206763A1, “PHENYLBUTYRATE FOR TREATMENT OF SPORADIC INCLUSION-BODY MYOSITIS AND DISORDERS RELATING TO AUTOPHAGY IMPAIRMENT OR AMYLOID BETA 42 ACCUMULATION” (UNIVERSITY OF SOUTHERN CALIFORNIA, priority 2013, published 2014).
# Entries after “also recorded” stand apart in the source; their conditions may differ.
# Assays:
# [1] = patients with urea cycle-disorders, compared with NaPB; cited from earlier work
# [2] = system: cultured human muscle fibers (CHMFs); test: Vacuolization of cultured human muscle fibers by phase-contrast microscopy; assay type: cell-based; settings: for vacuolization of chloroquine-exposed CHMFs: chloroquine 50 μM 24 hours + NaPB 15 mM, vs chloroquine alone; for vacuolization of CHMFs after exposure to lysosomal inhibitor alone: exposure alone 24 hours, vs control CHMFs
# Method: (§1) Primary cultures of normal human muscle were established as routinely performed in our laboratory (Askanas and Engel, 1992) from archived satellite cells of portions of diagnostic muscle biopsies from patients who, after all tests were performed, were considered free of muscle disease. Each experiment was performed on 3-9 different culture sets, each established from satellite cells derived from a different muscle biopsy. 10-15 days after myoblast fusion, the well-differentiated myotubes were, as previously described (Nogalska et al., 2012; Nogalska et al., 2010b), exposed for 24 hours to either: a) chloroquine (Chl), a lysosomotropic agent raising lysosomal pH and inhibiting activities of cathepsins (Shacka et al., 2006) (50 μM, Sigma-Aldrich, St. Louis, Mo.); or b) bafilomycin Al (Baf), an inhibitor of lysosomal V-ATPase causing an increase in lysosomal pH and inhibiting activities of cathepsins (Shacka et al., 2006) (25 nM, Sigma-Aldrich). CHMFs were also treated with NaPB (Tocris/R&D Systems, Minneapolis, Minn.) in doses ranging from 1-15 mM, used either alone or together with chloroquine or bafilomycin.
# GFP-LC3 = GFP-LC3 puncta count (autophagosome accumulation) in CHMFs; assay type: cell-based, human
# Method: To morphologically evaluate accumulation of autophagosomes, three different tissue-culture sets (experiments) were transduced with PremoAutophagy Sensor GFP-LC3 (Invitrogen, Carlsbad, Calif.) according to the manufacturer's instructions. 24 hours later, CHMFs were treated with chloroquine as described above. Counting of the GFP-LC3 puncta in the muscle fibers was performed on all three different culture experiments. Each experiment involved the same three different conditions: control, chloroquine-exposed, and chloroquine-exposed-plus-NaPB-treated cultures. In each experiment, each condition was composed of two cultures. For the analysis, eight random fields per condition of each culture were photographed (magnification ×40) in each of the three experiments. Overall, in each of the three conditions GFP-LC3 puncta were evaluated in more than 80 fibers, independently by two investigators (AN and CD). In addition, GFP-LC3 transduced CHMFs were also processed for immunofluorescence of NBR1 (1:100, 4BR, Santa Cruz Biotechnology, Santa Cruz, Calif.).
# LC3-II = LC3-II immunoblot with densitometric analysis in CHMFs; assay type: cell-based, human; settings: for increase of LC3-II: exposure to inhibitor alone, vs control CHMFs
# Method: as §1
# (§2) CHMFs were harvested in RIPA buffer and immunoblotted, as previously detailed (D'Agostino et al., 2011; Nogalska et al., 2012; Nogalska et al., 2010b) using antibodies against LC3 (1:500, Novus Biologicals, Littleton, Colo.), p62 (1:100, A-6, Santa Cruz Biotechnology) or NBR1 (1:700). Aβ42 oligomers were studied using 6E10 antibody (1:500, Covance, Princeton, N.J.), as described (Nogalska et al., 2010a). Blots were developed using anti-rabbit or anti-mouse WesternBreeze chemiluminescence kits (Invitrogen). Protein loading was evaluated by the actin band (1:600, C-2, Santa Cruz Biotechnology). Quantification of the immunoreactivity was performed by densitometric analysis using NIH Image J 1.310 software.
# NBR1 = NBR1 immunoblot with densitometric analysis in CHMFs; assay type: cell-based, human; settings: for increase of NBR1 levels: exposure to inhibitor alone, vs control CHMFs
# Method: as §1, §2
# p62 = p62 immunoblot with densitometric analysis in CHMFs; assay type: cell-based, human; settings: for increase of p62: exposure to inhibitor alone, vs control CHMFs
# Method: as §1, §2
# Cathepsin D = test: Measurement of Cathepsin D activity in CHMF homogenates; assay type: cell-based, human; settings: for reduction of Cathepsin D activity: exposure to inhibitor alone, vs control CHMFs
# Method: as §1
# Cathepsin D [EC 3.4.23.5] activity was measured utilizing a Cathepsin D Assay Kit (Sigma, St. Louis, Mo.) according to manufacturer's instructions and as previously detailed (Nogalska et al., 2010b). Homogenates were prepared in phosphate buffer-saline with addition of CHAPS (0.05%) (Sigma-Aldrich). All samples were measured in duplicate. The fluorescence emission excited at 355 nm was recorded at 405 nm every 2 minutes. Activity of cathepsin D measured in the linear phase of the reaction was expressed as fluorescence-intensity per minute.
# Cathepsin B = test: Measurement of Cathepsin B activity in CHMFs; assay type: cell-based, human; settings: for reduction of Cathepsin B activity: exposure to inhibitor alone, vs control CHMFs
# Method: as §1
# Cathepsin B [EC 3.4.22.1] activity was measured as described (Nogalska et al., 2010b). Samples were measured in duplicate. All samples were incubated at 37° C. for 45 min, and the fluorescence emission excited at 355 nm was recorded at 444 nm. Activity of cathepsin B was expressed as arbitrary fluorescence units.
# Aβ42 = Aβ42 ELISA in CHMFs; assay type: cell-based, human
# Method: as §1
# To quantify endogenous Aβ42 content in cultured human muscle fibers, we used the “Human β-Amyloid (1-42) ELISA kit, WAKO, High Sensitive” (WAKO Chemicals USA, Inc., Richmond, Va.) as described (Nogalska et al., 2012). Homogenates were freshly prepared in RIPA buffer containing a protease inhibitor cocktail (Roche Diagnostic, Mannheim, Germany). 100 μg of protein per well from each sample were diluted in a Standard Diluent Buffer provided in the kit, added to the assay plates in duplicate, and incubated overnight at 4° C. The ELISA was performed the next day, according to manufacturer's protocol. The absorbance was read at 450 nm.
# Aβ42 oligomers = Aβ42 oligomers immunoblot (6E10 antibody) in CHMFs; assay type: cell-based, human
# Method: Primary cultures of normal human muscle were established as routinely performed in our laboratory (Askanas and Engel, 1992) from archived satellite cells of portions of diagnostic muscle biopsies from patients who, after all tests were performed, were considered free of muscle disease. Each experiment was performed on 3-9 different culture sets, each established from satellite cells derived from a different muscle biopsy. […]
# CHMFs were harvested in RIPA buffer and immunoblotted, as previously detailed (D'Agostino et al., 2011; Nogalska et al., 2012; Nogalska et al., 2010b) using antibodies against LC3 (1:500, Novus Biologicals, Littleton, Colo.), p62 (1:100, A-6, Santa Cruz Biotechnology) or NBR1 (1:700). […] Protein loading was evaluated by the actin band (1:600, C-2, Santa Cruz Biotechnology). Quantification of the immunoreactivity was performed by densitometric analysis using NIH Image J 1.310 software.
# γ-secretase = test: Measurement of γ-secretase activity in CHMFs; assay type: cell-based, human
# Method: as §1
# γ-secretase activity was measured as previously described (Nogalska et al., 2012). Briefly, cultures were homogenized in PBS buffer with addition of 0.05% CHAPS. The supernatants containing 50 μg of protein were added to the reaction mixture containing assay buffer (50 mM TRIS-HCl pH 6.8, 2 mM EDTA, 0.25% CHAPS). The reaction was initiated by adding a specific synthetic substrate NMA-Amyloid β-Protein (aa708-715)-Lys-(DNP) Arg-Arg-Arg-amide trifluoroacetate salt (10 μM) (Sigma-Aldrich). After overnight incubation at 37° C., the samples were centrifuged at 16,000×g for 15 minutes, supernatants were transferred to a 96-well plate and the fluorescence emission excited at 390 nm was recorded at 444 nm. Activity of γ-secretase was expressed as arbitrary fluorescence units.
# control CHMFs = test: Morphology and muscle-fiber viability of control CHMFs; assay type: cell-based, human; settings: 15 mM NaPB
# Method: as §1
# [3] = cited from earlier work
# CHMFs = test: Treatment of CHMFs with HDAC inhibitor compared with PB; assay type: cell-based, human; settings: data not shown
# [4] = bafilomycin+NaPB (15 mM) vs bafilomycin alone
# [5] = chloroquine+NaPB (15 mM) vs chloroquine alone
# [6] = autophagy-impaired cultures, not significantly worse than controls
# [7] = bafilomycin+NaPB (15 mM) vs bafilomycin without NaPB
# [8] = chloroquine alone vs control CHMFs
smiles,measurement,setting,value
"O=C(CCCc1ccccc1)OCC(COC(=O)CCCc1ccccc1)OC(=O)CCCc1ccccc1 [GPB, 1,2,3-Propanetriyl tris(4-phenylbutanoate)]",lowering blood ammonia,[1],as effective as NaPB
"O=C([O-])CCCc1ccccc1.[Na+] [NaPB, Sodium 4-phenylbutanoate]",vacuolization of bafilomycin-exposed CHMFs,"[2]; bafilomycin 25 nM 24 hours + NaPB 15 mM, vs bafilomycin alone",nearly completely prevented their vacuolization; also recorded: morphologically prominent decrease of their vacuolization
same,vacuolization of chloroquine-exposed CHMFs,[2],virtually completely prevented their vacuolization
same,vacuolization of chloroquine-exposed CHMFs,[2]; listed as PB,prominently eliminating their vacuolization
same,decrease of number of GFP-LC3 foci,GFP-LC3; chloroquine+NaPB (15 mM) vs chloroquine-only exposed cultures,53%
same,decrease of LC3-II,LC3-II; [4],36%
same,decrease of LC3-II,LC3-II; [5],54%
same,effect on protein level of LC3-II,"LC3-II; control CHMFs, NaPB 1-15 mM",did not exert any effect
same,decrease of NBR1,NBR1; [4],34%
same,reduction of increased NBR1,NBR1; [5],63%
same,effect on protein level of NBR1,"NBR1; control CHMFs, NaPB 1-15 mM",did not exert any effect
same,decrease of p62,p62; [4],83%
same,decrease of p62,p62; [5],74%
same,effect on p62 at lower dose,"p62; chloroquine-exposed CHMFs, NaPB 5 mM",significantly decreased p62; also recorded: statistically significantly decreased
same,effect on protein level of p62,"p62; control CHMFs, NaPB 1-15 mM",did not exert any effect
same,Cathepsin D value after NaPB treatment compared with controls (ANOVA),Cathepsin D; [6],fully corrected
same,higher activity of Cathepsin D,Cathepsin D; [7],15%
same,increase of Cathepsin D activity,Cathepsin D; [5],40%
same,effect on Cathepsin D activity,"Cathepsin D; control CHMFs, NaPB 1-15 mM",did not exert any effect
same,effect on Cathepsin B activity in ER-stress model,"Cathepsin B; ER-stress-induced CHMFs, data not shown",mitigates the reduction of Cathepsin B activity
same,higher activity of Cathepsin B,Cathepsin B; [7],40%
same,increase of Cathepsin B activity,Cathepsin B; [5],70%
same,effect on Cathepsin B activity,"Cathepsin B; control CHMFs, NaPB 1-15 mM",did not exert any effect
same,Aβ42 by ELISA value after NaPB treatment compared with controls (ANOVA),Aβ42; [6],fully corrected
same,lower amount of Aβ42 by ELISA,"Aβ42; bafilomycin+NaPB (15 mM) vs bafilomycin alone, 2 culture sets, statistical significance not reached",28%
same,decrease of Aβ42 by ELISA,Aβ42; [5],53%
same,lower amount of Aβ42 oligomers,Aβ42 oligomers; [4],60%
same,decrease of Aβ42 oligomers,Aβ42 oligomers; chloroquine+NaPB (15 mM) vs autophagy-impaired NaPB-non-treated CHMFs,65%
same,γ-secretase activity value after NaPB treatment compared with controls (ANOVA),γ-secretase; [6],fully corrected
same,decrease of γ-secretase activity,γ-secretase; chloroquine+NaPB (15 mM) vs untreated autophagy-impaired CHMFs,56%
same,adverse morphologic abnormalities and muscle-fiber viability,control CHMFs,did not produce either adverse morphologic abnormalities or affect muscle-fiber viability
same,"tolerability, daily and long-term","[3]; infants, children and adults with urea-cycle disorders",usually well tolerated
same,tolerability in preliminary trials,[3]; patients with amyotrophic lateral sclerosis (ALS),well-tolerated
"CO/C1=C\C(C)=C\[C@@H](C)[C@@H](O)[C@@H](C)C/C(C)=C/C=C/[C@H](OC)[C@@H]([C@@H](C)[C@@H](O)[C@H](C)[C@@]2(O)C[C@@H](O)[C@H](C)[C@@H](C(C)C)O2)OC1=O [bafilomycin, bafilomycin Al]",vacuolization of CHMFs after exposure to lysosomal inhibitor alone,[2],induced pronounced vacuolization
same,increase of LC3-II,LC3-II,17 fold
same,increase of NBR1 levels,NBR1,9 fold
same,increase of p62,p62,18 fold
same,reduction of Cathepsin D activity,Cathepsin D,25%
same,reduction of Cathepsin B activity,Cathepsin B,85%
same,Aβ42 by ELISA after inhibitor exposure,"Aβ42; Baf-exposed CHMFs, two separate experiments",elevated
CCN(CC)CCCC(C)Nc1ccnc2cc(Cl)ccc12 (centres unmarked) [chloroquine],vacuolization of CHMFs after exposure to lysosomal inhibitor alone,[2],induced pronounced vacuolization
same,increase of number of GFP-LC3 foci/puncta per muscle fiber,"GFP-LC3; exposure alone, vs control CHMFs",8 fold
same,increase of LC3-II,LC3-II,9 fold
same,increase of NBR1 levels,NBR1,5 fold
same,increase of p62,p62,9 fold
same,reduction of Cathepsin D activity,Cathepsin D,40%
same,reduction of Cathepsin B activity,Cathepsin B,60%
same,increase of Aβ42 by ELISA,Aβ42; [8],60%
same,γ-secretase activity after inhibitor exposure,γ-secretase; [8],significantly increased γ-secretase activity
CC(/C=C/C(=O)NO)=C\[C@@H](C)C(=O)c1ccc(N(C)C)cc1 [trichostatinA],ameliorative effect compared with PB,CHMFs,did not have an effect similar to that achieved with PB
